Source: patent US4123540A, “Isoclavulanic acid as an antibacterial and a β-lactamase inhibitor” (Beecham Group Limited, priority 1974, dated 1978)
Structures can show the parent of a compound that is named as a salt.

Key:
[1] = hydrolysis of ester in phosphate buffer pH 7; assay type: physicochemical; details: 1 mg/ml., 37° C, 0.05M phosphate buffer at pH 7, followed over 2 hours by paper chromatography
Experimental: The reaction was followed by paper chromatography (bioautographic system). Using the butanol/ethanol/water system to follow the reaction over a period of 2 hours the zone of the methyl ester at Rf 0.79 decreased in size as the zone of clavulanic acid at Rf 0.12 increased.

[2] = target: T1, β-lactamase produced by Escherichia coli JT4 (Escherichia coli, UniProt P62593); experiment: β-lactamase inhibition assay (Description 1); assay type: biochemical
T1 construct: This cell suspension was then disrupted in an MSE ultrasonic disintegrator at 4° C; endogenous in cells; host or cells: Escherichia coli JT4 (ampicillin-resistant, R-factor), supernatant of sonicated cells
Experimental: During this time, enzyme inhibition or inactivation occurs. Substrate (benzylpenicillin) is then added and incubation continued for 30 minutes at 37° C. The amount of enzymic degradation of the substrate to penicilloic acid is determined by the hydroxylamine assay for penicillin. The amount of β-lactamase used is such as to give 75% hydrolysis of the benzylpenicillin in 30 minutes at 37° C.
(§1) The extent of hydrolysis is a reflection of the amount of enzyme remaining uninhibited.
The β-lactamase produced by Escherichia coli JT4 is used as an enzyme. […] Other similar R-factor controlled β-lactamases may be used if desired.
The culture maintained on nutrient agar slopes, is inoculated into 400 ml. of sterile Tryptone medium contained in a 2 liter conical flask. This medium has the following composition Tryptone (Oxoid) 32 g/l, yeast extract (Oxoid) 20 g/l, NaCl 5 g/l and CaCl2 6H2 O 2.2 g/l. The final pH was adjusted to 7.4 with dilute NaOH. The flask is shaken at 25° C for 20 hours on a rotary shaker at 240 r.p.m. […]
Suitable dilutions of the inhibitor preparation and β-lactamase solution are mixed and incubated at 37° C for 15 minutes (Test). […] The absorption of the final solutions is measured in an E.E.L. Colorimeter or a Spectrophotometer at 490 nm against the reagent blank.
The percentage inhibition of the β-lactamase is calculated as follows […]

Proteus mirabilis C889 = experiment: MIC / synergism with methyl ester (Example 32); assay type: cell-based; details: in the presence of 5 μg/ml. clavulanic acid methyl ester
Klebsiella aerogenes 62 = experiment: MIC / synergism, microtitre method (Example 42); assay type: cell-based; details: method of Example 42 (μg/ml)
[3] = tested on: Staphylococcus aureus Russell; experiment: MIC, microtitre technique (Example 53); assay type: cell-based
Text: (§2) The results were obtained by the microtitre technique with an inoculum of 1/500 of overnight broth.

Klebsiella aerogenes E70 = experiment: MIC, microtitre technique (Example 53); assay type: cell-based
Text: as §2

[4] = tested on: Staphylococcus aureus (Russell); experiment: MIC / synergism with methyl ester (Example 32); assay type: cell-based; details: in the presence of 1.0 μg/ml. clavulanic acid methyl ester
Klebsiella aerogenes A = experiment: MIC / synergism, microtitre method (Example 42); assay type: cell-based; details: method of Example 42 (μg/ml)
[5] = tested on: Klebsiella aerogenes E 70; experiment: MIC / synergism, microtitre method (Example 42); assay type: cell-based; details: method of Example 42 (μg/ml)
[6] = target: T2, β-lactamase of Staphylococcus aureus (Russell) (Staphylococcus aureus, UniProt P00807); experiment: β-lactamase inhibition assay; assay type: biochemical; details: standard enzyme inhibitory assay (Example 49); read-out: I50 (converted)
T2 construct: endogenous in cells; host or cells: Staphylococcus aureus (Russell)
Experimental: Solutions containing clavulanic acid (culture filtrate, samples from isolation procedure and the like) are incubated for 15 minutes with a β-lactamase preparation in 0.05M phosphate buffer at pH 7 and 37° C. During this time, enzyme inhibition or inactivation occurs. Substrate (benzylpenicillin) is then added and incubation continued for 30 minutes at 37° C. The amount of enzymic degradation of the substrate to penicilloic acid is determined by the hydroxylamine assay for penicillin. The amount of β-lactamase used is such as to give 75% hydrolysis of the benzylpenicillin in 30 minutes at 37° C.
as §1
Suitable dilutions of the inhibitor preparation and β-lactamase solution are mixed and incubated at 37° C for 15 minutes (Test). A control with buffer in place of inhibitor preparation is also incubated. Benzylpenicillin solution (substrate) is then added to test and control mixtures, incubation continued for a further 30 minutes at 37° C. […] 6 ml. of hydroxylamine reagent are added to all tests, controls and blanks and are allowed to react for 10 minutes at room temperature prior to the addition of 2 ml of ferric ammonium sulphate reagent. The absorption of the final solutions is measured in an E.E.L. Colorimeter or a Spectrophotometer at 490 nm against the reagent blank.

[7] = tested on: Staphylococcus aureus(Russell); experiment: MIC / synergism, microtitre method (Example 42); assay type: cell-based; details: synergist (clavulanic acid sodium salt) added at 1 μg/ml. instead of 5 μg/ml.
[8] = head prints sodium clavulanate, title sodium isoclavulanate, inoculum 1/500

T1 sequence (P62593 24-286 limits assumed): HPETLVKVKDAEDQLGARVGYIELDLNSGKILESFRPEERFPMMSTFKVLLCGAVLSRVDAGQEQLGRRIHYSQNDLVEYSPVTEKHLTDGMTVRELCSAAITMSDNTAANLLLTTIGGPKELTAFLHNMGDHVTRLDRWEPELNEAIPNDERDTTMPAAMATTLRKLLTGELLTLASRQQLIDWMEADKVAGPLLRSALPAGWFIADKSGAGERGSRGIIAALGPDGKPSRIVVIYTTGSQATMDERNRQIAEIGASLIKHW
T2 sequence (P00807 25-281): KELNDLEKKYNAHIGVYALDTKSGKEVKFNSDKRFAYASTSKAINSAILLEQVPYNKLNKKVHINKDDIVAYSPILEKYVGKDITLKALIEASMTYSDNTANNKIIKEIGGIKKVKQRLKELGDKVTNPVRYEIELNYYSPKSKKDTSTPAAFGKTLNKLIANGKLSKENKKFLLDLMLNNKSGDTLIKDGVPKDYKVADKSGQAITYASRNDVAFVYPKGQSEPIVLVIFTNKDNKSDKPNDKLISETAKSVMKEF

SMILES: COC(=O)[C@H]1/C(=C/CO)O[C@@H]2CC(=O)N21 [clavulanic acid methyl ester]
- hydrolysis of the ester to clavulanic acid [1]: Slow conversion of the ester to clavulanic acid

SMILES: O=C(O)[C@H]1/C(=C/CO)O[C@@H]2CC(=O)N21 [clavulanic acid, Z-(2R,5R)-3-(β-hydroxyethylidene)-7-oxo-4-oxa-1-azabicyclo[3,2,0]heptane-2-carboxylic acid]
- mode of inhibition of the β-lactamase [2]: progressively and irreversibly inhibits

SMILES: CC1(C)S[C@@H]2[C@H](NC(=O)[C@H](N)c3ccccc3)C(=O)N2[C@H]1C(=O)O [Ampicillin, ampicillin]
- minimum inhibitory concentration (M.I.C.) of antibiotic in presence of synergist (Proteus mirabilis C889): 31 µg/mL
- MIC of Ampicillin + 5 μg/ml of Benzyl Ester of clavulanic acid (Klebsiella aerogenes 62): 3.9
- MIC of Ampicillin + 5 μg/ml of Methyl Ester of clavulanic acid (Klebsiella aerogenes 62): 3.9
- MIC of Ampicillin + 1μg/ml sodium clavulanate [3, 8]: 3.9 µg/mL
- MIC of Ampicillin + 5μg/ml sodium clavulanate [3, 8]: 0.78 µg/mL
- MIC of Ampicillin + 20μg/ml sodium clavulanate [3, 8]: 0.39 µg/mL
- MIC of Ampicillin + 1μg/ml sodium clavulanate (Klebsiella aerogenes E70; [8]): 15.6 µg/mL
- MIC of Ampicillin + 20μg/ml sodium clavulanate (Klebsiella aerogenes E70; [8]): 6.2 µg/mL
- minimum inhibitory concentration (M.I.C.) of antibiotic in presence of synergist [4]: < 0.4 µg/mL
- MIC of Ampicillin + 5 μg/ml of Benzyl Ester of clavulanic acid (Klebsiella aerogenes A): 1.9
- MIC of Ampicillin + 5 μg/ml of Methyl Ester of clavulanic acid (Klebsiella aerogenes A): 1.9
- MIC of Ampicillin + 5 μg/ml of Benzyl Ester of clavulanic acid [5]: 3.9
- MIC of Ampicillin + 5 μg/ml of Methyl Ester of clavulanic acid [5]: 3.9

SMILES: O=C(O)[C@H]1/C(=C/CO)O[C@@H]2CC(=O)N21 [clavulanic acid sodium salt, 3-(β-hydroxyethylidine)-7-oxo-4-oxa-1-azabicyclo [3,2,0]heptane-2-carboxylic acid sodium salt]
- MIC ([3]; Staphylococcus aureus, compound alone, inoculum of 1/500 of overnight broth): 125 µg/mL
- MIC (Klebsiella aerogenes E70; Klebsiella aerogenes, E70): 500 µg/mL

SMILES: O=C(COc1ccccc1)OC/C=C1\O[C@@H]2CC(=O)N2[C@H]1C(=O)OCc1ccccc1 [Benzyl phenoxyacetylclavulanate]
- IC50 ([2]; benzylpenicillin substrate, 15 min preincubation, pH 7, 37° C): 5.9 µM
- IC50 [6]: 17.7 µM

SMILES: O=C(Cc1cccs1)N[C@@H]1C(=O)N2C(C(=O)[O-])=C(C[n+]3ccccc3)CS[C@H]12 [Cephaloridine, cephaloridine]
- Minimum Inhibitory Concentration of cephaloridine in presence of synergist [7]: Same value
